Experimental findings from patent US20240174690A1, “ANNULATED 2-AMINO-3-CYANO THIOPHENES AND DERIVATIVES FOR THE TREATMENT OF CANCER” (BOEHRINGER INGELHEIM INTERNATIONAL GMBH, priority 2021, published 2024) are described below.

pIC50: −log10 of the molar value.

Data set [1] concerns the target KRAS (WT)::SOS1 (Homo sapiens (Human), UniProt P01116, C118S). In words: KRAS::SOS1 AlphaScreen binding assay, KRAS WT. In a few lines: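 KRAS 1-169 (biotinylated avi-tag) with GST-SOS1 564-1049 and 10 µM GDP in PBS/0.1% BSA/0.05% Tween 20: WT and G13D 10 nM each with 10 nM SOS1; G12D 10 nM and G12C 7.5 nM with 5 nM SOS1. After 30 min, glutathione acceptor/streptavidin donor beads were added for 60 min at RT in the dark, then AlphaScreen read; 4-parameter IC50.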

The target of data set [2] is CYP3A4 (Homo sapiens (Human), UniProt P08684). In words: Mechanism based inhibition of CYP3A4 assay (MBI 3A4). Format: in vitro ADME. The note with it: hydroxy-midazolam formation after 30 min vs 0 min preincubation, 25 uM, human liver microsomes. In a few lines: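 Human CYP3A4 activity after 30 min vs 0 min preincubation with test compound; incubate then diluted 1:10 and midazolam added for a 15 min main incubation. Quenched with acetonitrile; hydroxy-midazolam quantified by LC/MS-MS and expressed as % of the 0 min preincubation formation.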

For data set [3], the system named is GP2D cells. In words: GP2D proliferation assay (120 h) (colorectal cancer, G12D). Format: cell-based. In a few lines:
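500 cells/well in DMEM + GlutaMAX + 10% FCS, exposed to a logarithmic compound dose series (DMSO-normalized) for 120 h. Viability read by CellTiter-Glo luminescence as percent of DMSO control, with an untreated T0 read at dosing; IC50 from four-parameter non-linear regression.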

Chain of KRAS (WT)::SOS1 (P01116 other isoform, or with tags, fused parts or gaps C118S): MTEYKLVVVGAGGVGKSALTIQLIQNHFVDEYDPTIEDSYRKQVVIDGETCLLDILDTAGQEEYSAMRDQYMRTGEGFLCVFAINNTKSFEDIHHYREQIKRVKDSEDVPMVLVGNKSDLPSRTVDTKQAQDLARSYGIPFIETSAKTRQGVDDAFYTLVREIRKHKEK
Chain of CYP3A4 (P08684 whole entry): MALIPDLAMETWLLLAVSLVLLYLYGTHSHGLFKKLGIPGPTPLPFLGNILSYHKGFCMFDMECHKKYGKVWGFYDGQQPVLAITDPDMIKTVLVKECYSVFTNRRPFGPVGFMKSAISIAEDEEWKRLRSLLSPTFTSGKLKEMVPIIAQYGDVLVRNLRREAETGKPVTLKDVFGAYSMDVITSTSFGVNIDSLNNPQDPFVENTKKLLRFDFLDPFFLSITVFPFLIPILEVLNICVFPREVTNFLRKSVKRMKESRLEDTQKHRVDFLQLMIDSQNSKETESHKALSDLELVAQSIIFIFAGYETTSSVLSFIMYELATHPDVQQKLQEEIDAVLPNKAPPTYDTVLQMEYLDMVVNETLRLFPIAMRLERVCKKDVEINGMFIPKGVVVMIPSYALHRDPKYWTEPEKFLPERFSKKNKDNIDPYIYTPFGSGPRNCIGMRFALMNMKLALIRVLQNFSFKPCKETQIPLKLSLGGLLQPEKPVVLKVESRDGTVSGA

In the case of `C[C@H](Oc1cc(N2CCN(C)C3(CC3)C2)nc(-c2noc3c2CCC[C@@]32CCCc3sc(N)c(C#N)c32)n1)[C@@H]1CCCN1C` [II-171], the negative logarithm of the IC50 (pIC50) in data set [1] was 8.15; in data set [3], 8.30. The “MBI 3A4” value in data set [2] is listed as 63%.
`C[C@H](Oc1cc(-n2ccc(-c3cnccn3)n2)nc(-c2noc3c2CCC[C@@]32CCCc3sc(N)c(C#N)c32)n1)[C@@H]1CCCN1C` [II-130]: the pIC50 is 8.30 in data set [1] and 6.63 in data set [3]. Besides, in data set [2], the “MBI 3A4” value turned out to be 67%.
In the case of `C[C@H](Oc1cc(-n2cc3c(n2)CCN(C)C3)nc(-c2noc3c2CCC[C@@]32CCCc3sc(N)c(C#N)c32)n1)[C@@H]1CCCN1C` [II-141], the results for the negative-log IC50 (pIC50) in data set [1] and in data set [3] were 8.52 and 8.40, respectively. In addition, the “MBI 3A4” value in data set [2] worked out at 88%.
On to `C[C@H](Oc1cc(N2CCN[C@@H](C)C2)nc(-c2noc3c2CCC[C@@]32CCCc3sc(N)c(C#N)c32)n1)[C@@H]1CCCN1C` [II-162], for which the negative-log IC50 (pIC50) in data set [1] is 8.10; in data set [3], 7.52. Also, the “MBI 3A4” value in data set [2] is 84%.
For `C[C@H](Oc1nc(-c2noc3c2CCC[C@@]32CCCc3sc(N)c(C#N)c32)nc(N2CCN(C)C3(CC3)C2)c1Cl)[C@@H]1C[C@@H](F)CN1C` [II-176], the figures for the negative logarithm of the IC50 (pIC50) in data set [1] and in data set [3] were 7.51 and 7.30, respectively.
`C[C@H](Oc1nc(-c2noc3c2CCC[C@@]32CCCc3sc(N)c(C#N)c32)nc(N2C[C@H](C)NC3(CC3)C2)c1F)[C@@H]1C[C@@H](F)CN1C` [II-157]: the pIC50 is 8.30 in data set [1] and 8.70 in data set [3].
For `C[C@H](Oc1cc(C2=CCNCC2)nc(-c2noc3c2CCC[C@@]32CCCc3sc(N)c(C#N)c32)n1)[C@@H]1CCCN1C` [II-164], the pIC50 was 8.10 in data set [1] and 7.64 in data set [3].
Turning to `C[C@H](Oc1cc(-c2cccc(C(N)=O)c2)nc(-c2noc3c2CCC[C@@]32CCCc3sc(N)c(C#N)c32)n1)[C@@H]1CCCN1C` [II-133], the pIC50 is 8.10 in data set [1] and 6.52 in data set [3].
As to `C[C@H](Oc1nc(-c2noc3c2CCC[C@@]32CCCc3sc(N)c(C#N)c32)nc(N2CCNC3(CC3)C2)c1Cl)[C@@H]1C[C@@H](F)CN1C` [II-156], the negative logarithm of the IC50 (pIC50) in data set [1] was 8.22; in data set [3] it was 9.00.
For `C[C@H](Oc1cc(N2CCN(C)C3(CCOC3)C2)nc(-c2noc3c2CCC[C@@]32CCCc3sc(N)c(C#N)c32)n1)[C@@H]1C[C@@H](F)CN1C` (some centres unmarked) [II-151], the negative logarithm of the IC50 (pIC50) is 8.10 in data set [1] and 7.49 in data set [3].
On to `CO[C@@H]1C[C@@H]([C@H](C)Oc2cc(N3CCN(C)C4(CC4)C3)nc(-c3noc4c3CCC[C@@]43CCCc4sc(N)c(C#N)c43)n2)N(C)C1` [II-152], for which the negative logarithm of the IC50 (pIC50) was 7.85 in data set [1] and 7.89 in data set [3].
`C[C@H](Oc1cc(N2CCN(C)C3(CC3)C2)nc(-c2noc3c2CCC[C@@]32CCCc3sc(N)c(C#N)c32)n1)[C@@H]1C[C@@H](F)CN1C` [II-149]: the pIC50 in data set [1] was 7.92; in data set [3], 8.10. Besides, the “MBI 3A4” value in data set [2] is recorded as 42%.
For the compound `C[C@H](Oc1cc(N2CCNC3(CC3)C2)nc(-c2noc3c2CCC[C@@]32CCCc3sc(N)c(C#N)c32)n1)[C@@H]1C[C@@H](F)CN1C` [II-165], the negative logarithm of the IC50 (pIC50) is 8.30 in data set [1] and 9.00 in data set [3].
Taken in the same sequence, the figures for `C[C@H](Oc1nc(-c2noc3c2CCC[C@@]32CCCc3sc(N)c(C#N)c32)nc(N2CCNC3(CC3)C2)c1F)[C@@H]1C[C@@H](F)CN1C` [II-155] were 8.40 and 9.00.
For `C[C@@H]1CN(c2nc(-c3noc4c3CCC[C@@]43CCCc4sc(N)c(C#N)c43)nc(O[C@@H](C)[C@@H]3C[C@@H](F)CN3C)c2F)CC2(CC2)N1` [II-158], the negative logarithm of the IC50 (pIC50) in data set [1] was 8.40; in data set [3], 8.05.
For `C[C@H](Oc1cc(N2CCNC3(COC3)C2)nc(-c2noc3c2CCC[C@@]32CCCc3sc(N)c(C#N)c32)n1)[C@@H]1C[C@@H](F)CN1C` [II-150], the negative logarithm of the IC50 (pIC50) was 8.52 in data set [1] and 9.00 in data set [3]. The “MBI 3A4” value in data set [2] is recorded as 49%.
On to `C[C@H](Oc1cc(N2CCN(C)C3(COC3)C2)nc(-c2noc3c2CCC[C@@]32CCCc3sc(N)c(C#N)c32)n1)[C@@H]1C[C@@H](F)CN1C` [II-148], for which the pIC50 in data set [1] was 8.30; in data set [3], 7.96. In addition, the “MBI 3A4” value in data set [2] stood at 55%.
Take `C[C@H](Oc1cc(-n2ccc(C(=O)N[C@@H]3CCOC3)n2)nc(-c2noc3c2CCC[C@@]32CCCc3sc(N)c(C#N)c32)n1)[C@@H]1CCCN1C` [II-192]: the pIC50 in data set [1] is 8.30; in data set [3] it was 7.51. In addition, in data set [2], the “MBI 3A4” value stood at 49%.
